Patent US8791132B2, “Compounds and methods for treatment of hypertension” (Medivation Technologies, Inc., priority 2011, dated 2014)
Several values for one entry are separate records, joined by “and”; a condition that tells them apart may be missing. Equal values may be shown once. Read-outs that look alike come from different tables or passages of the source.

Experiments:
[1] = target: T1, rat adrenergic α1B receptor (Rattus norvegicus, UniProt P15823); experiment: Radioligand binding, adrenergic α1B ([3H]Prazosin); conditions: for inhibition at 0.03 µM / inhibition at 0.1 µM / Percentage inhibition of ligand binding, Adrenergic α1B / Percentage inhibition of ligand binding, Adrenergic α1B (0.03 μM) / Percentage inhibition of ligand binding, Adrenergic α1B (0.1 μM): [3H]Prazosin
T1 construct: rat adrenergic α1B receptor obtained from Wistar Rat liver; from tissue; host or cells: Wistar rat liver
T1 sequence (P15823 1-515): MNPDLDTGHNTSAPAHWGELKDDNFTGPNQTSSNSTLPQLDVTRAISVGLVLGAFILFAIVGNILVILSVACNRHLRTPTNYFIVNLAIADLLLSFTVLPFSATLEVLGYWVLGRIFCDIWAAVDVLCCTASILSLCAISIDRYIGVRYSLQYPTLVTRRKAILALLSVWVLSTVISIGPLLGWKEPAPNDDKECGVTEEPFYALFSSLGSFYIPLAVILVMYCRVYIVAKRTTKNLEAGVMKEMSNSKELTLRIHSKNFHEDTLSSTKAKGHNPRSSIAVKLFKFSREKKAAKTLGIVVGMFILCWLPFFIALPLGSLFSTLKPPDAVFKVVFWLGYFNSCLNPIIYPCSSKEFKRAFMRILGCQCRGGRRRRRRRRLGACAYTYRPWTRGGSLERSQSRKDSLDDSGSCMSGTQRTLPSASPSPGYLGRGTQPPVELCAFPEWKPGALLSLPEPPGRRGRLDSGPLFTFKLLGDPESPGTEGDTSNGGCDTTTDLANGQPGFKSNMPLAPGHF
Procedure, shortened: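 Rat α1B receptor from Wistar rat liver was incubated with 0.25 nM [3H]prazosin for 60 min at 25 °C in 50 mM Tris-HCl, pH 7.4, 0.5 mM EDTA. Non-specific binding was defined with 10 μM phentolamine. Bound radioligand was measured by filtration and counting, reported as percent inhibition of specific binding.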

[2] = target: T2, human recombinant adrenergic α1D receptor (Homo sapiens, UniProt P25100); experiment: Radioligand binding, adrenergic α1D ([3H]Prazosin); conditions: [3H]Prazosin
T2 construct: expressed in transfected cells; host or cells: HEK-293
T2 sequence (P25100 1-572): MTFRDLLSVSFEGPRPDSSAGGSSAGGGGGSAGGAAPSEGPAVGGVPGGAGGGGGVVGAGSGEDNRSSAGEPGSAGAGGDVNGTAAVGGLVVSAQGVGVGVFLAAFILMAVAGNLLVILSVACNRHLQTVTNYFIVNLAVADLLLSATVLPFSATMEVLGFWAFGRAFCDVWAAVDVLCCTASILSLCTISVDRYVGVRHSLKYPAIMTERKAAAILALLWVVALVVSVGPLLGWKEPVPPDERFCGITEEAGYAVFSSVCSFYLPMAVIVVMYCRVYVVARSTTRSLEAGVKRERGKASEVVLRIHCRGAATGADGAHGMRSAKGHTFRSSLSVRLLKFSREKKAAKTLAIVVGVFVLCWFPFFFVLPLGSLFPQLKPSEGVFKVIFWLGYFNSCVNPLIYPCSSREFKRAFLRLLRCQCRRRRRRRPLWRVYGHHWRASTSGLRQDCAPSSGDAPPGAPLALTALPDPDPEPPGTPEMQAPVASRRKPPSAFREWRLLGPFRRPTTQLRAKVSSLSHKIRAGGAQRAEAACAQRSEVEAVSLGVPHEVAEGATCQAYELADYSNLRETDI
Protocol: Compounds were incubated with 0.6 nM [3H]Prazosin for 60 min at 25° C. Non-specific binding was estimated in the presence of 10 μM phentolamine. Receptor proteins were filtered and washed, the filters were then counted to determine [3H]Prazosin specifically bound. […] Biochemical assay results are presented as the percent inhibition of specific binding in Table B1.

[3] = target: T3, human recombinant adrenergic α2A receptor (Homo sapiens, UniProt P08913); experiment: Radioligand binding, adrenergic α2A ([3H]MK-912); conditions: for Percentage inhibition of ligand binding, Adrenergic α2A / Percentage inhibition of ligand binding, Adrenergic α2A (0.1 μM): 0.1 µM
T3 construct: expressed in transfected cells; host or cells: insect Sf9 cells
T3 sequence (P08913 1-465): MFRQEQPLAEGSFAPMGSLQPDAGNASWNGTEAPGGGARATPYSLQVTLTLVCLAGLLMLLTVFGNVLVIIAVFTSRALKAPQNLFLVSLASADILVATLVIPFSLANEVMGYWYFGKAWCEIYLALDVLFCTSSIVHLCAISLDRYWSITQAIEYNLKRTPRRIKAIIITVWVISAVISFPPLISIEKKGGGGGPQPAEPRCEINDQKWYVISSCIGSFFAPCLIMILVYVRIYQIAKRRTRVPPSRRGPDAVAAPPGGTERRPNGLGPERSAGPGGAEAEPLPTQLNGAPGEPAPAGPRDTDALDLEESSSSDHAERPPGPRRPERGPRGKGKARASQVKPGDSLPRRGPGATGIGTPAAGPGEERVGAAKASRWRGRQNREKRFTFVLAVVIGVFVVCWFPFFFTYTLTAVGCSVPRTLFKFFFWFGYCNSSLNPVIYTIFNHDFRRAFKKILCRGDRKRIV
Procedure, shortened: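 Displacement of 1 nM [3H]MK-912 from receptor produced in insect Sf9 cells was measured after 60 min at 25 °C. Readout: percent inhibition of specific binding.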

[4] = read-out: Percentage inhibition of ligand binding, Adrenergic α1B (0.03 μM), compound at 0.03 μM, repeat datapoints each shown
[5] = read-out: Percentage inhibition of ligand binding, Adrenergic α1B (0.1 μM), compound at 0.1 μM, repeat datapoints each shown
[6] = read-out: Percentage inhibition of ligand binding, Adrenergic α2A (0.1 μM), compound at 0.1 μM, [3H]MK-912, repeat datapoints each shown
[7] = compound at 0.03 μM, repeat assays, each datapoint shown, 0.03 µM
[8] = compound at 0.1 μM, repeat assays, each datapoint shown, 0.1 µM
[9] = compound at 0.1 μM, repeat assays, each datapoint shown, read-out: Percentage inhibition of ligand binding, Adrenergic α1D
[10] = compound at 0.03 μM, [3H]MK-912, repeat assays, each datapoint shown, read-out: Percentage inhibition of ligand binding, Adrenergic α2A
[11] = compound at 0.1 μM, [3H]MK-912, repeat assays, each datapoint shown
[12] = compound at 0.03 μM, repeat assays, each datapoint shown, read-out: Percentage inhibition of ligand binding, Adrenergic α1B
[13] = compound at 0.1 μM, repeat assays, each datapoint shown, read-out: Percentage inhibition of ligand binding, Adrenergic α1B
[14] = compound at 0.1 μM, [3H]MK-912, repeat assays, each datapoint shown, read-out: Percentage inhibition of ligand binding, Adrenergic α2A
[15] = compound at 0.03 μM, repeat datapoints each shown, 0.03 µM
[16] = compound at 0.1 μM, repeat datapoints each shown, 0.1 µM
[17] = compound at 0.1 μM, [3H]MK-912, repeat datapoints each shown

| Compound | Percentage inhibition of ligand binding, Adrenergic α1B [1, 8] | Ki [3] | inhibition at 0.03 µM [3, 10] [%] | Percentage inhibition of ligand binding, Adrenergic α2A [3, 11] | inhibition at 0.03 µM [1, 12] [%] | further results |
| --- | --- | --- | --- | --- | --- | --- |
| Cc1ccc(C(O)Cn2c3c(c4cc(C)ccc42)CN(C)CC3)cc1 (racemic) [compound 183, racemic-2-(1,2,3,4-tetrahydro-2,8-dimethylpyrido[4,3-b]indol-5-yl)-1-p-tolylethanol] |  |  |  |  |  | inhibition at 0.03 µM [1, 4]: 50%; inhibition at 0.1 µM [1, 5]: 71%; inhibition at 0.1 µM ([2]; read-out: Percentage inhibition of ligand binding, Adrenergic α1D (0.1 μM), compound at 0.1 μM, repeat datapoints each shown): 36%; inhibition at 0.1 µM [3, 6]: 93% |
| Cc1ccc2c(c1)c1c(n2CC(O)c2ccncc2)CCN(C)C1 (single isomer, unassigned) [3b] | 50% and 55% and 57% and 61% | 139 nM and 166 nM and 222 nM | 1 | 21% and 22% and 23% and 25% |  | Ki [1]: 51 nM; Percentage inhibition of ligand binding, Adrenergic α1B [1, 7]: 27% and 32% and 34%; inhibition at 0.1 µM [2, 9]: 18% |
| CN1CCc2c(c3cc(Cl)ccc3n2CC(O)c2ccncc2)C1 (single isomer, unassigned) [4a] | 57% | 176 nM | 5 | 24% | 25 | inhibition at 0.1 µM [1, 13]: 52%; inhibition at 0.1 µM [3, 14]: 19% |
| Cc1ccc2c(c1)c1c(n2CC(C)(O)c2cccnc2)CCN(C)C1 (single isomer, unassigned) [5b, 1-(1,2,3,4-tetrahydro-2,8-dimethylpyrido[4,3-b]indol-5-yl)-2-(pyridin-3-yl)propan-2-ol] | 23% and 30% and 33% | 152 nM and 192 nM and 195 nM |  | 18% and 21% and 22% | 10 | Ki [1]: 184 nM; Percentage inhibition of ligand binding, Adrenergic α1B [1, 7]: 11% and 15%; inhibition at 0.1 µM [2, 9]: 1% |
| Cc1ccc2c(c1)c1c(n2CC(O)c2ccncc2)CCN(C)CC1 (single isomer, unassigned) [13b, 2-(3,9-dimethyl-2,3,4,5-tetrahydroazepino[4,5-b]indol-6(1H)-yl)-1-(pyridin-4-yl)ethanol] |  | 199 nM |  |  | 68 | inhibition at 0.1 µM [1, 13]: 91% |
| Cc1cnc2c(c1)c1c(n2CC(C)(O)c2cccnc2)CCN2CCCC12 (single isomer, unassigned) [26a] | 52% and 61% | 113 nM | 14 | 23% and 33% | 32 |  |
| Cc1ccc2c(c1)c1c(n2CC(N)c2ccncc2)CCN(C)C1 (single isomer, unassigned) [27a, 2-(1,2,3,4-tetrahydro-2,8-dimethylpyrido[4,3-b]indol-5-yl)-1-(pyridin-4-yl)ethanamine] | 59% and 64% | 1100 nM |  | 2% and 11% | 34 |  |
| Cc1ccc2c(c1)c1c(n2CC(O)c2ccncc2)CCNC1 (single isomer, unassigned) [39a, 2-(8-methyl-1,2,3,4-tetrahydro-pyrido[4,3-b]indol-5-yl)-1-pyridin-4-yl-ethanol] | 33% | 1660 nM | 5 | 15% | 9 | inhibition at 0.1 µM [1, 13]: 38%; inhibition at 0.1 µM [3, 14]: 13% |
| CN1CCc2c(n(CC(O)c3ccncc3)c3ccc(Cl)cc23)C1 (single isomer, unassigned) [41a] | 43% |  |  | −9% |  |  |
| Cc1ccc2c(c1)c1c(n2CC(O)c2ccncc2)CCN2CCCC12 (single isomer, unassigned) [129d] |  | 1.87 nM |  |  |  | Percentage inhibition of ligand binding, Adrenergic α1B (0.03 μM) [1, 15]: 93%; Percentage inhibition of ligand binding, Adrenergic α1B (0.1 μM) [1, 16]: 94% and 99%; Percentage inhibition of ligand binding, Adrenergic α2A (0.03 μM) ([3]; compound at 0.03 μM, [3H]MK-912, repeat datapoints each shown, 0.03 µM): 87% |
| Cc1ccc2c(c1)c1c(n2CC(O)c2ccc(C(N)=O)nc2)CCN(C)C1 (single isomer, unassigned) [144b, 5-[2-(2,8-dimethyl-1,2,3,4-tetrahydro-pyrido[4,3-b]indol-5-yl)-1-hydroxy-ethyl]-pyridine-2-carboxylic acid amide] |  |  |  |  |  | Percentage inhibition of ligand binding, Adrenergic α1B (0.03 μM) [1, 15]: 36%; Percentage inhibition of ligand binding, Adrenergic α1B (0.1 μM) [1, 16]: 60% and 66%; inhibition at 0.03 µM [1, 4]: 28%; inhibition at 0.1 µM [1, 5]: 53%; Percentage inhibition of ligand binding, Adrenergic α2A (0.1 μM) [3, 17]: 4%; inhibition at 0.1 µM [3, 6]: 3% |
| Cc1ccc2c(c1)c1c(n2CC(C)(O)c2cnccn2)CCN2CCCC12 (single isomer, unassigned) [176a] |  |  |  |  |  | Percentage inhibition of ligand binding, Adrenergic α1B (0.1 μM) [1, 16]: 79%; inhibition at 0.03 µM [1, 4]: 52%; Percentage inhibition of ligand binding, Adrenergic α2A (0.1 μM) [3, 17]: 32% |
